According to PubChem BioAssay AID1845209 (Molecular Pharmacology Branch, DTP, NCI, 2023):

Tested on: NCI-H211 tumor spheroids, viability percent test/control
Assay: Anticancer human tumor NCI-H211 cell line growth inhibition;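 also: spheroids exposed to agents for seven days before readout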
Settings: spheroids with HUVEC and MSC; for IC50: curve of first compound; for viability, T/C: stronger effect = lower value; active = viability on the fitted dose curve at most 10% of control; inactive = the rest
How it was run: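 Complex spheroids of malignant cells with endothelial cells and mesenchymal stem cells; agents alone or combined, from near clinical Cmax (or 10 microM if unknown) down in half-log steps, 0.25% DMSO final.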

[1] = second compound 0.003 µM, first compound 0.0949 µM
[2] = second compound 0.003 µM, first compound 0.3 µM
[3] = second compound 0.003 µM, first compound 0.949 µM
[4] = second compound 0.003 µM, first compound 3 µM

O=C(c1cc(Cc2n[nH]c(=O)c3ccccc23)ccc1F)N1CCN(C(=O)C2CC2)CC1 + COc1cc2c(cc1O)CCNC21CSC2c3c(OC(C)=O)c(C)c4c(c3C(COC1=O)N1C(O)C3Cc5cc(C)c(OC)c(O)c5C(C21)N3C)OCO4
active: viability, T/C (second compound 30 pM, first compound 0.949 µM) 1.62% | viability, T/C (second compound 30 pM, first compound 3 µM) 0.78% | viability, T/C (second compound 30 pM, first compound 9.49 µM) 0.73% | viability, T/C (second compound 30 pM, first compound 30 µM) 0.73% | viability, T/C (second compound 94.9 pM, first compound 0.0949 µM) 2.31% | viability, T/C (second compound 94.9 pM, first compound 0.3 µM) 1.2% | viability, T/C (second compound 94.9 pM, first compound 0.949 µM) 0.86% | viability, T/C (second compound 94.9 pM, first compound 3 µM) 0.78% | viability, T/C (second compound 94.9 pM, first compound 9.49 µM) 0.78% | viability, T/C (second compound 94.9 pM, first compound 30 µM) 0.95% | viability, T/C (second compound 0.0003 µM, first compound 0.0949 µM) 1.39% | viability, T/C (second compound 0.0003 µM, first compound 0.3 µM) 0.85% | viability, T/C (second compound 0.0003 µM, first compound 0.949 µM) 0.91% | viability, T/C (second compound 0.0003 µM, first compound 3 µM) 0.8% | viability, T/C (second compound 0.0003 µM, first compound 9.49 µM) 1.69% | viability, T/C (second compound 0.0003 µM, first compound 30 µM) 0.79% | viability, T/C (second compound 0.000949 µM, first compound 0.0949 µM) 0.69% | viability, T/C (second compound 0.000949 µM, first compound 0.3 µM) 1.29% | viability, T/C (second compound 0.000949 µM, first compound 0.949 µM) 1.05% | viability, T/C (second compound 0.000949 µM, first compound 3 µM) 0.61% | viability, T/C (second compound 0.000949 µM, first compound 9.49 µM) 0.73% | viability, T/C (second compound 0.000949 µM, first compound 30 µM) 0.72% | viability, T/C [1] 0.44% | viability, T/C [2] 0.28% | viability, T/C [3] 0.1% | viability, T/C [4] 0.21% | viability, T/C (second compound 0.003 µM, first compound 9.49 µM) 0.25% | viability, T/C (second compound 0.003 µM, first compound 30 µM) 0.2%
0.0952 µM: IC50 (second compound 30 pM)
< 0.0949 µM: IC50 (second compound 94.9 pM) | IC50 (second compound 0.0003 µM) | IC50 (second compound 0.000949 µM) | IC50 (second compound 0.003 µM)
inactive: viability, T/C (second compound 30 pM, first compound 0.0949 µM) 50.5% | viability, T/C (second compound 30 pM, first compound 0.3 µM) 16.1%

CNCc1ccc(-c2cc(-c3nc(-c4ccc(S(=O)(=O)C(C)C)cc4)cnc3N)on2)cc1 + CC[C@@]1(O)C(=O)OCc2c1cc1n(c2=O)Cc2cc3c(CN(C)C)c(O)ccc3nc2-1
inactive: viability, T/C (second compound 0.003 µM, first compound 0.00949 µM) 50.5%
< 0.00949 µM: IC50 (second compound 0.00949 µM) | IC50 (second compound 0.03 µM) | IC50 (second compound 0.0949 µM) | IC50 (second compound 0.3 µM)
active: viability, T/C (second compound 0.003 µM, first compound 0.03 µM) 9.5% | viability, T/C [1] 0.85% | viability, T/C [2] 0.92% | viability, T/C [3] 0.05% | viability, T/C [4] 0.11% | viability, T/C (second compound 0.00949 µM, first compound 0.00949 µM) 3.19% | viability, T/C (second compound 0.00949 µM, first compound 0.03 µM) 1.35% | viability, T/C (second compound 0.00949 µM, first compound 0.0949 µM) 1.06% | viability, T/C (second compound 0.00949 µM, first compound 0.3 µM) 1.09% | viability, T/C (second compound 0.00949 µM, first compound 0.949 µM) 0.11% | viability, T/C (second compound 0.00949 µM, first compound 3 µM) 0.11% | viability, T/C (second compound 0.03 µM, first compound 0.00949 µM) 0.96% | viability, T/C (second compound 0.03 µM, first compound 0.03 µM) 0.98% | viability, T/C (second compound 0.03 µM, first compound 0.0949 µM) 0.97% | viability, T/C (second compound 0.03 µM, first compound 0.3 µM) 1.07% | viability, T/C (second compound 0.03 µM, first compound 0.949 µM) 0.14% | viability, T/C (second compound 0.03 µM, first compound 3 µM) 0.11% | viability, T/C (second compound 0.0949 µM, first compound 0.00949 µM) 1.04% | viability, T/C (second compound 0.0949 µM, first compound 0.03 µM) 1.29% | viability, T/C (second compound 0.0949 µM, first compound 0.0949 µM) 1.06% | viability, T/C (second compound 0.0949 µM, first compound 0.3 µM) 0.67% | viability, T/C (second compound 0.0949 µM, first compound 0.949 µM) 0.12% | viability, T/C (second compound 0.0949 µM, first compound 3 µM) 0.13% | viability, T/C (second compound 0.3 µM, first compound 0.00949 µM) 0.95% | viability, T/C (second compound 0.3 µM, first compound 0.03 µM) 1.15% | viability, T/C (second compound 0.3 µM, first compound 0.0949 µM) 1.37% | viability, T/C (second compound 0.3 µM, first compound 0.3 µM) 0.82% | viability, T/C (second compound 0.3 µM, first compound 0.949 µM) 0.21% | viability, T/C (second compound 0.3 µM, first compound 3 µM) 0.18%
0.00961 µM: IC50 (second compound 0.003 µM)
